Target: T1, green eNL (GeNL) (Oplophorus gracilirostris, UniProt Q9GV45, A31E/Q38R/Q45L/L54V/A60N/K70R/V71I/A81I/F95D/L99Q/M102K/I117V/P142E/Q151K/Y165I/N193R)
T1 construct: single-chain fusion: C-terminally truncated mNeonGreen - two-residue linker - NanoLuc (N-terminal deletion 4); N-terminal His tag; E. coli; with mNeonGreen
Test: luminescence initial velocity (first […] s), Michaelis-Menten fit
Type: biochemical
Conditions: 10 pM enzyme; furimazine 0.025-13 μM

T1 sequence (Q9GV45 30-196 with the stated changes): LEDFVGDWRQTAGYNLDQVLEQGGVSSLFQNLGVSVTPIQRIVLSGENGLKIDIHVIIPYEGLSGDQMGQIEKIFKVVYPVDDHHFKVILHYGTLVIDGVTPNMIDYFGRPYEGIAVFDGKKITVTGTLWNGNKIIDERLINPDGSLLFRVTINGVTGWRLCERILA

## O=c1c(Cc2ccco2)nc2c(Cc3ccccc3)[nH]c(-c3ccccc3)cn1-2 [furimazine]
  Km: enzymatic parameters (Km and kcat) of the eNLs and Nluc

Reference: paper PMC5171807, “Five colour variants of bright luminescent protein for real-time multicolour bioimaging” (Nature Communications, 2016)
